From US20230192626A1 (Baylor College of Medicine, priority 2020, published 2023)

molecular target: T1, Human sEH (hsEH) (Homo sapiens, UniProt P34913); assay: fluorescence-based sEH biochemical inhibition assay (PHOME substrate); settings: Table 1; hsEH 5 nM, PHOME 50 μM, 30° C.
T1 construct: purchased Cayman Chemicals
T1 sequence (P34913 1-555): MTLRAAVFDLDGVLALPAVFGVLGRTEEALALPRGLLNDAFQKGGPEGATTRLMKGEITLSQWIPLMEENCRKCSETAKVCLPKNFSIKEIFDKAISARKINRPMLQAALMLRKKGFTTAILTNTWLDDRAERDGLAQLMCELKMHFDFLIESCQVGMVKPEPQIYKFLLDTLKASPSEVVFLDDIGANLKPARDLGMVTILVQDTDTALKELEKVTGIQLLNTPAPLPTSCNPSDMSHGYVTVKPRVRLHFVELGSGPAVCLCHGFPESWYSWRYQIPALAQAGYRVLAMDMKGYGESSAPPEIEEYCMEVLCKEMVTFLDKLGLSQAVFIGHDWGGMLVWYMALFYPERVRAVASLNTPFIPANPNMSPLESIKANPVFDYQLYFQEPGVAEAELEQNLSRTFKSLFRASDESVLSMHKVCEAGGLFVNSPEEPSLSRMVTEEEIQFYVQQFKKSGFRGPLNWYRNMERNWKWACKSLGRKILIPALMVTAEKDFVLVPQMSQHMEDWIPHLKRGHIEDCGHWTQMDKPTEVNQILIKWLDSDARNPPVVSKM
Description: The benzimidazole-based compounds synthesized according to Example 1 were measured for activity. Using a fluorescence-based sEH biochemical inhibition assay, the IC50 value was measured for each benzimidazole-based compound. Human sEH (hsEH) and its substrate PHOME were purchased from Cayman Chemicals. IC50 values of hsEH inhibitors were determined by fluorescence. IC50 is defined as the concentration of the inhibitor that blocks 50% of the enzymatic activity. To a 96-well plate containing 10 μL enzyme (5 nM in water), 60 μL of H2O and 10 μL BisTris-HCl buffer (25 mM, pH 7.0) were added inhibitors with different concentrations. The mixture was incubated for 5 min at 30° C. prior to addition of 10 μL of PHOME substrate (50 μM). Fluorescence were measured at 30° C. with an excitation wavelength of 330 nm and an emission wavelength of 465 nm using a BioTek H1 plate reader. The IC50 values were calculated by non-linear regression fitting. The curve was generated from at least three separate runs, each in duplicates. Results are given as means and standard deviations. In Table 1, an IC50 value less than or equal to 1 μM is indicated as an “A.” an IC50 value from greater than 1 μM to less than 10 μM is indicated as a “B′” and an IC50 value of greater than or equal to 10 μM is indicated as a “C.”
Additional benzimidazole-based compounds as described herein were measured for activity according to the procedure outlined in Example 2. Briefly, using a fluorescence-based sEH biochemical inhibition assay, the IC50 value was measured for each benzimidazole-based compound.

For `Fc1cc2nc(-c3ccc(-c4ccccc4)cc3)[nH]c2cc1Br` [Compound 45, 2-([1,1′-biphenyl]-4-yl)-6-bromo-5-fluoro-1H-benzo[d]imidazole], which IC50 is on record?
The IC50 was no more than 1000 nM.

For `COc1ccc(-c2nc3cc(F)c(F)cc3[nH]2)cc1` [Compound 46, 5,6-difluoro-2-(4-methoxyphenyl)-1H-benzo[d]imidazole], which IC50 is on record?
Its IC50 is no more than 1000 nM.

Which IC50 does the source give for `CC(=O)Nc1ccc(-c2nc3cc(F)c(F)cc3[nH]2)cc1` [Compound 47, N-(4-(5,6-difluoro-1H-benzo[d]imidazol-2-yl)phenyl)acetamide] here?
Its IC50 is no less than 10000 nM.

With `Fc1ccc2[nH]c(-c3ccc(C(F)(F)F)cc3)nc2c1F` [Compound 48, 4,5-difluoro-2-(4-(trifluoromethyl)phenyl)-1H-benzo[d]imidazole] as the molecule, how does the IC50 read?
The IC50 was no more than 1000 nM.

For `Fc1ccc2[nH]c(-c3ccc(-c4ccccc4)cc3)nc2c1F` [Compound 49, 2-([1,1′-biphenyl]-4-yl)-4,5-difluoro-1H-benzo[d]imidazole], which IC50 is on record?
The IC50 was no less than 10000 nM.

With `Fc1cc2nc(-c3ccnc(C(F)(F)F)c3)[nH]c2cc1F` [Compound 50, 5,6-difluoro-2-(2-(trifluoromethyl)pyridin-4-yl)-1H-benzo[d]imidazole] as the molecule, how does the IC50 read?
Its IC50 is 1000 to 10000 nM.

Which IC50 does the source give for `Fc1ccc(Oc2ccc(-c3nc4cc(F)c(F)cc4[nH]3)cc2)cc1` [Compound 52, 5,6-difluoro-2-(4-(4-fluorophenoxy)phenyl)-1H-benzo[d]imidazole] here?
Its IC50 is no more than 1000 nM.

`Fc1cc2nc(-c3ccc(Oc4ccccc4)cc3)[nH]c2cc1F` [Compound 53, 5,6-difluoro-2-(4-phenoxyphenyl)-1H-benzo[d]imidazole] was tested. Which IC50 did it give?
The IC50 was no more than 1000 nM.

How did the IC50 turn out when `N#Cc1ccc(-c2nc3cc(F)c(F)cc3[nH]2)cc1` [Compound 54, 4-(5,6-difluoro-1H-benzo[d]imidazol-2-yl)benzonitrile] was run?
The IC50 was no more than 1000 nM.

`O=c1[nH]nc(-c2ccc(-c3nc4cc(F)c(F)cc4[nH]3)cc2)o1` [Compound 55, 5-(4-(5,6-difluoro-1H-benzo[d]imidazol-2-yl)phenyl)-1,3,4-oxadiazol-2(3H)-one] was tested. Which IC50 did it give?
The IC50 was no more than 1000 nM.

With `O=C(O)c1ccc(-c2nc3cc(F)c(F)cc3[nH]2)cc1` [Compound 56] as the molecule, how does the IC50 read?
The IC50 was no more than 1000 nM.

Which IC50 does the source give for `COC(=O)c1ccc(-c2nc3cc(F)c(F)cc3[nH]2)cc1` [Compound 57, Methyl 4-(5,6-difluoro-1H-benzo[d]imidazol-2-yl)benzoate] here?
Its IC50 is no less than 10000 nM.

Which IC50 does the source give for `Fc1cc2nc(-c3ccc(-c4nnco4)cc3)[nH]c2cc1F` [Compound 58, 2-(4-(5,6-difluoro-1H-benzo[d]imidazol-2-yl)phenyl)-1,3,4-oxadiazole] here?
The IC50 was no less than 10000 nM.

With `Fc1cc2nc(-c3ccc(-c4ccncc4)cc3)[nH]c2cc1F` [Compound 59, 5,6-difluoro-2-(4-(pyridin-4-yl)phenyl)-1H-benzo[d]imidazole] as the molecule, how does the IC50 read?
Its IC50 is 1000 to 10000 nM.

`Cc1noc(-c2ccc(-c3nc4cc(F)c(F)cc4[nH]3)cc2)n1` [Compound 60, 5-(4-(5,6-difluoro-1H-benzo[d]imidazol-2-yl)phenyl)-3-methyl-1,2,4-oxadiazole] was tested. Which IC50 did it give?
The IC50 was no less than 10000 nM.

Which IC50 does the source give for `Fc1cc2nc(-c3ccc(-c4nnn[nH]4)cc3)[nH]c2cc1F` [Compound 61, 2-(4-(1H-tetrazol-5-yl)phenyl)-5,6-difluoro-1H-benzo[d]imidazole] here?
The IC50 was no less than 10000 nM.
